Experimental data reported in patent US20230128969A1, “POLYURETHANE FOAM COMPOSITIONS WITH ANTIMICROBIAL PROPERTIES” (SANITIZED AG, priority 2020, published 2023).
“And” between values parts separate entries of the source, which are not always exact repeats. Equal entries are not always repeated. Where two headings read alike, the source gives them in different places.

Key:
[1] = test system: Aspergillus niger-ATCC 9642, Penicillium funiculosum-ATCC 11797, Chaetomium globosum-ATCC 6205, Trichoderma virens-ATCC 9645, Aureobasidium pullulans-ATCC …; assay: ASTM G21 strengthened (fungal growth on specimen, 28 days); assay type: cell-based, mold fungi (composite spore suspension); details: for ASTM G21: 0.5 pbw (B) with 0.25 pbw (C) C8-C18-alkyldimethylbenzyl ammonium chloride; for ASTM G21 strengthened rating: rigid foam A4
[2] = test system: Penicillium funiculosum-ATCC 36839; assay: Agar diffusion test SAN BIO 12/94; assay type: cell-based; details: polyurethane coating A5
[3] = test system: Escherichia coli ATCC 11229; assay: JIS L 1902 test method (memory foam, 18 hours); assay type: cell-based; details: memory foam A2
[4] = test system: Aspergillus niger-ATCC 6275, Penicillium funiculosum-ATCC 36839, Chaetomium globosum-ATCC 6205, Trichoderma virens ATCC 9645, Paecilomyces varioti-ATCC 18502; assay: EN ISO 846 A test method (PUD coatings, 28 days); assay type: cell-based, fungi (composite spore suspension); set-up: key: 0: No fungal growth, excellent resistance; 1: fungi visible with the microscope, sufficient resistance; 2-5: fungi visible to the naked eye, insufficient resistance; details: polyurethane coating A5
[5] = test system: Escherichia coli ATCC 8739; assay: JIS Z 2801 test method (PUD coatings, 24 hours); assay type: cell-based; details: polyurethane coating A5
[6] = memory foam A1, 0.2 pbw (B) with 0.5 pbw (C) dimethyltetradecyl(3-(trimethoxysilyl)propyl)ammonium chloride, (E) Diglyme 0.8 pbw
[7] = memory foam A2, 0.125 pbw (C), 0 pbw (B)
[8] = memory foam A2, 0.25 pbw (C), 0 pbw (B)
[9] = memory foam A2, 0.5 pbw (B), 0 pbw (C)
[10] = memory foam A2, 0.5 pbw (C), 0 pbw (B)
[11] = 0.5 pbw (C) with 0.25 pbw (B) tetrasodium EDTA salt
[12] = 0.5 pbw (C) with 0.5 pbw (B) tetrasodium EDTA salt
[13] = memory foam A2, 1 pbw (C), 0 pbw (B)
[14] = memory foam A2, 2 pbw (C), 0 pbw (B)

Q: How did the “G21 (ASTM G21 strengthened rating)” value ([1]; memory foam A1, 0.5 pbw (B) with 0.5 pbw (C) dimethyltetradecyl(3-(trimethoxysilyl)propyl)ammonium chloride, (E) Arcol Polyol 1108 0.5 pbw) turn out when `CCCCCCCCCCC(=O)O` [Undecanoic acid] was run?
A: Its value is 4 (at least 60% of the surface is covered with mold fungi).

Q: How did the “G21 (ASTM G21 strengthened rating)” value [1, 6] turn out when `O=C(O)CC(O)(CC(=O)O)C(=O)O` [Citric acid] was run?
A: The value was 4 (at least 60% of the surface is covered with mold fungi).

Q: What does the source list for `CCCCCCCCCCCCCCCCCC[N+](C)(C)CCC[Si](OC)(OC)OC.[Cl-]` [dimethyloctadecyl(3-(trimethoxysilyl)propyl)ammonium chloride]?
A: G21 (ASTM G21 strengthened rating) [1, 7]: 4 (at least 60% of the surface is covered with mold fungi); G21 (ASTM G21 strengthened rating) [1, 8]: 3 (30 to 60% of the surface is covered with mold fungi)

Q: How did the “G21 (ASTM G21 strengthened rating)” value [1, 6] turn out when `O.O.O=C([O-])CN(CCN(CC(=O)O)CC(=O)O)CC(=O)[O-].[Na+].[Na+]` [disodium EDTA dihydrate, Disodium EDTA dihydrate] was run?
A: The value was 0.

Q: And the “antimicrobial efficiency / protection (in words)” value ([1]; memory foam A1, (B) combined with (C) dimethyltetradecyl(3-(trimethoxysilyl)propyl)ammonium chloride, ASTM G21 strengthened)?
A: The value was “very good antimicrobial efficiency”.

Q: What about the “G21 (ASTM G21 strengthened rating)” value ([1]; memory foam A2, 0.25 pbw (B), 0 pbw (C)) of the same molecule?
A: The value was 3 (30 to 60% of the surface is covered with mold fungi).

Q: What about the “ASTM G21” value ([1]; memory foam A2) of the same molecule?
A: The value was 0.

Q: What about the “G21 (ASTM G21 strengthened rating)” value [1, 9] of the same molecule?
A: The value was 3 (30 to 60% of the surface is covered with mold fungi).

Q: What about the “G21 (ASTM G21 strengthened rating)” value ([1]; memory foam A2, 1 pbw (B), 0 pbw (C)) of the same molecule?
A: Its value is 3 (30 to 60% of the surface is covered with mold fungi).

Q: What about the “ASTM G21 strengthened rating” value ([1]; 0.5 pbw (B), 0 pbw (C)) of the same molecule?
A: The value was 4 (at least 60% of the surface is covered with mold fungi).

Q: And the “SAN BIO 12-94 fungal growth” value ([2]; 0.25 pbw (B), 0 pbw (C))?
A: The value was “Full (f) (insufficient protection, sample is covered with fungi)”.

Q: What about the “SAN BIO 12-94 fungal growth” value ([2]; 0.5 pbw (B), 0 pbw (C)) of the same molecule?
A: The value was “Full (f) (insufficient protection, sample is covered with fungi)”.

Q: And the “SAN BIO 12-94 fungal growth” value ([2]; 1 pbw (B), 0 pbw (C))?
A: Its value is “Full (f) (insufficient protection, sample is covered with fungi)”.

Q: And the “logarithmic reduction of bacterial growth (log R), JIS L 1902” value ([3]; 0.25 pbw (B), 0 pbw (C))?
A: The value was 3.1 log R.

Q: With `CCCCCCCCCC[N+](C)(C)CCCCCCCCCC.[Cl-]` [didecyldimethyl ammonium chloride] as the molecule, how does the “G21 (ASTM G21 strengthened rating)” value [1] read?
A: Its value is 0.

Q: For `O=C([O-])CN(CCN(CC(=O)[O-])CC(=O)[O-])CC(=O)[O-].[Na+].[Na+].[Na+].[Na+]` [tetrasodium EDTA salt, EDTA, tetrasodium], which “G21 (ASTM G21 strengthened rating)” value [1] is on record?
A: The value was 0.

Q: And the “antimicrobial efficiency / protection (in words)” value [1]?
A: The value was “very good antimicrobial efficiency”.

Q: What about the “EN ISO 846 A rating” value ([4]; 0.25 pbw (B), 0 pbw (C)) of the same molecule?
A: The value was 5.

Q: What about the “EN ISO 846 A rating” value ([4]; 0.5 pbw (B), 0 pbw (C)) of the same molecule?
A: Its value is 5.

Q: What about the “EN ISO 846 A rating” value ([4]; 1 pbw (B), 0 pbw (C)) of the same molecule?
A: The value was 5.

Q: What about the “Bacterial Activity R, logarithmic reduction (log R activity), JIS Z 2801” value ([5]; 0.25 pbw (B), 0 pbw (C)) of the same molecule?
A: The value was 0.90 log R.

Q: What about the “Bacterial Activity R, logarithmic reduction (log R activity), JIS Z 2801” value ([5]; 0.5 pbw (B), 0 pbw (C)) of the same molecule?
A: Its value is 3.20 log R.

Q: With `CCCCCCCCCCCCCC[N+](C)(C)CCC[Si](OC)(OC)OC.[Cl-]` [dimethyltetradecyl(3-(trimethoxysilyl)propyl)ammonium chloride] as the molecule, how does the “G21 (ASTM G21 strengthened rating)” value ([1]; memory foam A1, 0.5 pbw (C), no (B), (E) Arcol Polyol 1108 1 pbw) read?
A: Its value is 4 (at least 60% of the surface is covered with mold fungi).

Q: What about the “G21 (ASTM G21 strengthened rating)” value ([1]; memory foam A1, 0.5 pbw (C), no (B), (E) Diglyme 1 pbw) of the same molecule?
A: Its value is 4 (at least 60% of the surface is covered with mold fungi).

Q: And the “G21 (ASTM G21 strengthened rating)” value ([1]; memory foam A1, 0.5 pbw (C), no (B), (E) Triacetin 1 pbw)?
A: Its value is 4 (at least 60% of the surface is covered with mold fungi).

Q: What about the “G21 (ASTM G21 strengthened rating)” value ([1]; memory foam A1, 0.5 pbw (C), no (B), no (E)) of the same molecule?
A: The value was 3 (30 to 60% of the surface is covered with mold fungi).

Q: What about the “G21 (ASTM G21 strengthened rating)” value [1, 7] of the same molecule?
A: Its value is 4 (at least 60% of the surface is covered with mold fungi).

Q: What about the “G21 (ASTM G21 strengthened rating)” value [1, 8] of the same molecule?
A: The value was 3 (30 to 60% of the surface is covered with mold fungi).

Q: What about the “G21 (ASTM G21 strengthened rating)” value [1, 10] of the same molecule?
A: The value was 0.

Q: What about the “EN ISO 846 A rating” value [4, 11] of the same molecule?
A: The value was 3.

Q: What about the “EN ISO 846 A rating” value [4, 12] of the same molecule?
A: The value was 1.

Q: What about the “EN ISO 846 A rating” value ([4]; 0.5 pbw (C) with 1 pbw (B) tetrasodium EDTA salt) of the same molecule?
A: The value was 0.

Q: What about the “EN ISO 846 A rating” value ([4]; 0.5 pbw (C), 0 pbw (B)) of the same molecule?
A: The value was 5.

Q: And the “SAN BIO 12-94 fungal growth” value ([2]; 0.5 pbw (C), 0 pbw (B))?
A: Its value is “Full (f) (insufficient protection, sample is covered with fungi)”.

Q: And the “logarithmic reduction of bacterial growth (log R), JIS L 1902” value ([3]; 1 pbw (C), 0 pbw (B))?
A: Its value is 2.7 log R.

Q: And the “bacterial growth (in words)” value ([3]; combination of (C) with (B) disodium EDTA dihydrate)?
A: Its value is “absence of bacterial growth”.

Q: What about the “Bacterial Activity R, logarithmic reduction (log R activity), JIS Z 2801” value ([5]; 0.125 pbw (C) with 0.25 pbw (B) tetrasodium EDTA salt) of the same molecule?
A: The value was 2.80 log R.

Q: What about the “Bacterial Activity R, logarithmic reduction (log R activity), JIS Z 2801” value ([5]; 0.125 pbw (C) with 0.5 pbw (B) tetrasodium EDTA salt) of the same molecule?
A: The value was greater than 5.10 log R.

Q: What about the “Bacterial Activity R, logarithmic reduction (log R activity), JIS Z 2801” value ([5]; 0.125 pbw (C), 0 pbw (B)) of the same molecule?
A: The value was 0.10 log R.

Q: And the “Bacterial Activity R, logarithmic reduction (log R activity), JIS Z 2801” value [5, 11]?
A: The value was 2.90 log R.

Q: What about the “Bacterial Activity R, logarithmic reduction (log R activity), JIS Z 2801” value [5, 12] of the same molecule?
A: The value was greater than 5.10 log R.

Q: What about the “Bacterial Activity R, logarithmic reduction (log R activity), JIS Z 2801” value ([5]; 0.5 pbw (C), 0 pbw (B)) of the same molecule?
A: Its value is 0.50 log R.

Q: Which “G21 (ASTM G21 strengthened rating)” value [1, 10] does the source give for `CCCCCCCCCCCCCC[N+](C)(C)C.[Cl-]` [myristyltrimethylammonium chloride] here?
A: Its value is 2 (10 to 30% of the surface is covered with mold fungi).

Q: And the “G21 (ASTM G21 strengthened rating)” value [1, 13]?
A: Its value is 0.

Q: And the “G21 (ASTM G21 strengthened rating)” value [1, 14]?
A: The value was 0.

Q: With “C8-C18-alkyldimethylbenzyl ammonium chloride” as the molecule, how does the “G21 (ASTM G21 strengthened rating)” value [1, 8] read?
A: Its value is 3 (30 to 60% of the surface is covered with mold fungi) and 2 (10 to 30% of the surface is covered with mold fungi).

Q: And the “G21 (ASTM G21 strengthened rating)” value [1, 10]?
A: The value was 4 (at least 60% of the surface is covered with mold fungi).

Q: And the “G21 (ASTM G21 strengthened rating)” value [1, 13]?
A: The value was 4 (at least 60% of the surface is covered with mold fungi).

Q: And the “G21 (ASTM G21 strengthened rating)” value [1, 14]?
A: The value was 0.

Q: And the “ASTM G21 strengthened rating” value ([1]; 0.25 pbw (C), 0 pbw (B))?
A: The value was 3 (30 to 60% of the surface is covered with mold fungi).

Q: How did the “ASTM G21” value ([1]; memory foam A2) turn out when `O=C(O)CN(CCO)CCN(CC(=O)O)CC(=O)O` [N-(2-Hydroxyethyl)-ethylenediamine-N,N′,N′-triacetic acid] was run?
A: The value was 2 (10 to 30% of the surface is covered with mold fungi).

Q: And the “G21 (ASTM G21 strengthened rating)” value [1, 9]?
A: Its value is 3 (30 to 60% of the surface is covered with mold fungi).

Q: `O=C(O)CN(CC(=O)O)CC(=O)O` [Nitrilotriacetic acid] was tested. Which “G21 (ASTM G21 strengthened rating)” value [1, 6] did it give?
A: The value was 4 (at least 60% of the surface is covered with mold fungi).

Q: Which “G21 (ASTM G21 strengthened rating)” value [1, 10] does the source give for `CCCCCCCCCCCCN(CCCN)CCCN` [laurylamine dipropylenediamine] here?
A: The value was 4 (at least 60% of the surface is covered with mold fungi).

Q: And the “G21 (ASTM G21 strengthened rating)” value [1, 13]?
A: Its value is 4 (at least 60% of the surface is covered with mold fungi).
